According to ChEMBL document CHEMBL4414672, “Synthesis of certain benzothieno[3,2-d]pyrimidine derivatives as a selective SIRT2 inhibitors” (Eur J Med Chem, 2020):
In brackets after ≈: the same amount, converted by molar mass.

Tests used:
MCF7 = experiment: Cytotoxicity against human MCF7 cells assessed as reduction in cell viability after 24 hrs by MTT assay; assay type: functional, cell-based; settings: MCF7, 24 h
UO-31 = experiment: Cytotoxicity against human UO31 cells assessed as reduction in cell viability after 24 hrs by MTT assay; assay type: functional, cell-based; settings: UO-31, 24 h
MOLT-4 = experiment: Growth inhibition of human MOLT4 cells at 10^-5 M incubated for 48 hrs by sulforhodamine B assay; assay type: functional; settings: MOLT-4, 48 h, read-out: GI
SR = experiment: Growth inhibition of human SR cells at 10^-5 M incubated for 48 hrs by sulforhodamine B assay; assay type: functional; settings: read-out: GI
A549 = experiment: Growth inhibition of human A549/ATCC cells at 10^-5 M incubated for 48 hrs by sulforhodamine B assay; assay type: functional; settings: A549, 48 h, read-out: GI
NCI-H226 = experiment: Growth inhibition of human NCI-H226 cells at 10^-5 M incubated for 48 hrs by sulforhodamine B assay; assay type: functional; settings: NCI-H226, 48 h, read-out: GI
NCI-H322M = experiment: Growth inhibition of human NCI-H322M cells at 10^-5 M incubated for 48 hrs by sulforhodamine B assay; assay type: functional; settings: read-out: GI
COLO 205 = experiment: Growth inhibition of human COLO205 cells at 10^-5 M incubated for 48 hrs by sulforhodamine B assay; assay type: functional; settings: COLO 205, 48 h, read-out: GI
HCC 2998 = experiment: Growth inhibition of human HCC2998 cells at 10^-5 M incubated for 48 hrs by sulforhodamine B assay; assay type: functional; settings: HCC 2998, 48 h, read-out: GI
HCT-15 = experiment: Growth inhibition of human HCT15 cells at 10^-5 M incubated for 48 hrs by sulforhodamine B assay; assay type: functional; settings: HCT-15, 48 h, read-out: GI
SW-620 = experiment: Growth inhibition of human SW620 cells at 10^-5 M incubated for 48 hrs by sulforhodamine B assay; assay type: functional; settings: SW-620, 48 h, read-out: GI
SNB-75 = experiment: Growth inhibition of human SNB75 cells at 10^-5 M incubated for 48 hrs by sulforhodamine B assay; assay type: functional; settings: SNB-75, 48 h, read-out: GI
U-251 = experiment: Growth inhibition of human U251 cells at 10^-5 M incubated for 48 hrs by sulforhodamine B assay; assay type: functional; settings: U-251, 48 h, read-out: GI
SK-MEL-5 = experiment: Growth inhibition of human SK-MEL-5 cells at 10^-5 M incubated for 48 hrs by sulforhodamine B assay; assay type: functional; settings: SK-MEL-5, 48 h, read-out: GI
OVCAR-3 = experiment: Growth inhibition of human OVCAR3 cells at 10^-5 M incubated for 48 hrs by sulforhodamine B assay; assay type: functional; settings: OVCAR-3, 48 h, read-out: GI
NCI/ADR-RES = experiment: Growth inhibition of human NCI/ADR-RES cells at 10^-5 M incubated for 48 hrs by sulforhodamine B assay; assay type: functional; settings: read-out: GI
CAKI-1 = experiment: Growth inhibition of human Caki1 cells at 10^-5 M incubated for 48 hrs by sulforhodamine B assay; assay type: functional; settings: CAKI-1, 48 h, read-out: GI
RXF 393 = experiment: Growth inhibition of human RXF393 cells at 10^-5 M incubated for 48 hrs by sulforhodamine B assay; assay type: functional; settings: RXF 393, 48 h, read-out: GI
MDA-MB-231 = experiment: Growth inhibition of human MDA-MB-231 cells at 10^-5 M incubated for 48 hrs by sulforhodamine B assay; assay type: functional; settings: MDA-MB-231, 48 h, read-out: GI
BT-549 = experiment: Growth inhibition of human BT549 cells at 10^-5 M incubated for 48 hrs by sulforhodamine B assay; assay type: functional; settings: BT-549, 48 h, read-out: GI
T47D = experiment: Growth inhibition of human T47D cells at 10^-5 M incubated for 48 hrs by sulforhodamine B assay; assay type: functional; settings: read-out: GI
MDA-MB-468 = experiment: Growth inhibition of human MDA-MB-468 cells at 10^-5 M incubated for 48 hrs by sulforhodamine B assay; assay type: functional; settings: MDA-MB-468, 48 h, read-out: GI

SMILES | inhibition of growth at 10 µM (MOLT-4) [%] | inhibition of growth at 10 µM (SR) [%] | inhibition of growth at 10 µM (A549) [%] | inhibition of growth at 10 µM (NCI-H226) [%] | inhibition of growth at 10 µM (NCI-H322M) [%] | inhibition of growth at 10 µM (COLO 205) [%] | inhibition of growth at 10 µM (HCC 2998) [%] | inhibition of growth at 10 µM (HCT-15) [%] | inhibition of growth at 10 µM (SW-620) [%] | inhibition of growth at 10 µM (SNB-75) [%] | inhibition of growth at 10 µM (U-251) [%] | inhibition of growth at 10 µM (SK-MEL-5) [%] | inhibition of growth at 10 µM (OVCAR-3) [%] | inhibition of growth at 10 µM (NCI/ADR-RES) [%] | inhibition of growth at 10 µM (CAKI-1) [%] | inhibition of growth at 10 µM (RXF 393) [%] | inhibition of growth at 10 µM (MDA-MB-231) [%] | inhibition of growth at 10 µM (BT-549) [%] | inhibition of growth at 10 µM (T47D) [%] | inhibition of growth at 10 µM (MDA-MB-468) [%] | other results
O=C1/C(=C\c2ccc3ccccc3c2)Sc2ccc(Cl)cc21 | 1.25 | 18.6 | -7.74 | 17.9 | 10.3 | -10.7 | -27.2 | -4.32 | 3.24 | -0.33 | -1.36 | 5.71 | -1.8 | 2.51 | 27.9 | -2.24 | 12.4 | -9.47 | 29.5 | -6.42 | IC50 (MCF7): 43.9 µg/mL (≈ 136 µM); IC50 (UO-31): 39.9 µg/mL (≈ 124 µM)
CCOC(=O)CSC1=Nc2c(sc3ccc(Cl)cc23)C(c2cccc([N+](=O)[O-])c2)N1 (stereo not drawn) | 14.6 | 21.4 | 2.51 | 8.28 | 7.77 | -3.41 | -16.9 | -2.2 | -4.96 | 11.3 | 3.38 | 3.95 | 0.63 | 1.65 | 16.5 | -12.8 | 9.26 | -12.4 | 22.6 | -24.4 | IC50 (MCF7): 22.1 µg/mL (≈ 47.9 µM); IC50 (UO-31): 11.8 µg/mL (≈ 25.6 µM)
N#Cc1cnn(C2=Nc3c(sc4ccc(Cl)cc34)C(c3cccc([N+](=O)[O-])c3)N2)c1N (stereo not drawn) | 8.24 | -0.62 | -3.91 | 19.2 | 6.34 | -3.42 | -3.42 | -4.58 | -4.05 | 11.5 | -11.2 | 4.88 | -7.11 | 5.59 | -3.28 | 4.09 | 22.9 | -5.52 | 10.1 | 3.7 | IC50 (MCF7): 11.9 µg/mL (≈ 26.5 µM); IC50 (UO-31): 32.5 µg/mL (≈ 72.2 µM)
NNC1=Nc2c(sc3ccc(Cl)cc23)C(c2cccc([N+](=O)[O-])c2)N1 (stereo not drawn) | 13 | 1.98 | -4.45 | 18.4 | 4.45 | -1.26 | -1.26 | -5.02 | -6.43 | 10.7 | -3.56 | 3.86 | -1.38 | -3.64 | 18.5 | -16.8 | 16.3 | -17.8 | 12.8 | 7.99 | IC50 (MCF7): 16.4 µg/mL (≈ 43.7 µM); IC50 (UO-31): 18.3 µg/mL (≈ 49.1 µM)
O=C1Nc2c(sc3ccc(Cl)cc23)C(c2cccc(Br)c2)N1 (stereo not drawn) | 5.84 | 20.9 | 5.34 | 3.66 | 5.33 | -4.67 | -23.5 | -0.85 | -0.2 | 15.2 | -3.91 | 3.66 | 6.24 | 12.2 | 17.7 | -18.1 | 6.83 | -17.5 | 13 | -26.3 | 
O=[N+]([O-])c1cccc(C2c3sc4ccc(Cl)cc4c3N=C3NN=NN32)c1 (stereo not drawn) | -1.88 | -7.25 | 9.64 | 11.5 | -3.77 | -7.9 | 1.22 | -16 | -1.74 | -9.67 | 3.96 | -10.9 | -0.5 | 3.11 | -15.7 | 0 | -4.1 | 9.57 | -8.85 | -8.85 | 
Oc1ccccc1C1NC(=S)Nc2c1sc1ccc(Cl)cc21 (stereo not drawn) | 9.69 | 16.3 | 5.42 | 21.8 | 5.31 | -1.76 | -10.6 | -0.05 | -8 | 21.1 | -5.09 | 6.32 | 4.13 | 9.4 | 12.9 | 2.85 | 27.4 | -5 | 24.8 | 8.75 | 
O=C1Nc2c(sc3ccc(Cl)cc23)C(c2ccc3ccccc3c2)N1 (stereo not drawn) | 12.9 | 20.9 | 4.41 | 7.25 | 9.44 | -6.54 | -14.6 | 1.48 | 1.75 | 21.5 | 1.75 | 1.82 | 3.83 | -2.33 | 23.3 | -10.1 | 14.8 | -1.2 | 24.2 | -13.7 | 
N=C1Nc2c(sc3ccc(Cl)cc23)C(c2cccc([N+](=O)[O-])c2)N1 (stereo not drawn) | 21.2 | -3.11 | 20.4 | 14.4 | 4.7 | -31 | 9.09 | -4.21 | 3.17 | -4.54 | 0.68 | -2.55 | 10.7 | 8.91 | -10.8 | 4.42 | -0.16 | 5.75 | 1.02 | 1.02 | 
O=C1Nc2c(sc3ccc(Cl)cc23)C(c2ccccc2O)N1 (stereo not drawn) | 14.7 | 19.1 | -1.35 | 18.7 | 7.77 | -9.33 | -15.3 | 2 | -1.05 | 27.4 | 4.41 | 4.49 | 4.91 | 1.65 | 18.5 | -4.74 | 19.7 | 4.41 | 18.1 | 0.19 | 
